Patent US20250122146A1, “COMPOUNDS FOR REDUCING NEUROINFLAMMATION” (THE SCRIPPS RESEARCH INSTITUTE, priority 2021, published 2025)
Entries after “also recorded” stand apart in the source; their conditions may differ.

Legend:
[1] = test system: human iPSC-derived microglia (hiMG); test: IL-1β release (NLRP3 inflammasome activation) from hiMG exposed to oligomeric Aβ and αSyn with their antibodies, ELISA; format: cell-based; details: oligomeric Aβ (~500 nM oligomers) + oligomeric αSyn (~100 nM) with anti-αSyn & anti-Aβ antibodies; carnosic acid 0.1-10 μM; n=3 per group
Method: (§1) Proinflammatory microglial activation. Following a protocol adapted from D. Trudler et al. (2021), human induced pluripotent stem cell (hiPSC)-derived microglia (hiMG) were plated at a concentration of 1×10^6 cells/mL. 16 h before the experiment the cell medium was changed to IMDM (no supplements added). Carnosic acid (CA, purity >99%) was added 16 hours before the experiment, at a concentration of 2 μM. Recombinant αSyn oligomers (100 nM) and oligomeric Aβ (10 μM) were incubated with 2.5 μg/mL of their respective antibodies for 1 h prior to adding to hiMG for additional 6 hours. Media was collected and cytokine levels, IL-1β or tumor necrosis factor (TNF), were measured by ELISA per the manufacturer's instructions.
(§2) Carnosic Acid Reduces Neuroinflammation Induced by Antibody-Misfolded Protein Complex. NLRP3 inflammasome activation was assessed by measuring the release of the proinflammatory cytokine interleukin-1β (IL-1β) from hiMG exposed to (A) oligomeric Aβ (500 nM oligomers) and low concentrations of oligomeric αSyn (100 nM), (B) Aβ and αSyn with their cognate human antibodies (anti-Aβ and anti-αSyn, respectively), and (C) same as (B) with carnosic acid.

[2] = test system: human iPSC-derived microglia (hiMG); test: TNF release from hiMG exposed to oligomeric Aβ and αSyn with their antibodies, ELISA; format: cell-based; details: oligomeric Aβ (~750 nM oligomers) + oligomeric αSyn (~100 nM) with anti-αSyn & anti-Aβ antibodies; carnosic acid 2 μM; n=3 per group
Method: as §1, §2

[3] = test system: Nrf2/ARE pathway; details: literature statement; cited from earlier work
[4] = test system: neural damage / oxidative stress; details: literature statement; cited from earlier work
[5] = test system: HSF-1 and Nrf2 transcription pathways; details: literature statement (Satoh et al. 2015); cited from earlier work

| Compound | IL-1β release from hiMG [1] | TNF release from hiMG [2] | activation of the Nrf2/ARE pathway [3] | neuroprotective effect [4] | activation of HSF-1 and Nrf2 transcription pathways [5] |
| --- | --- | --- | --- | --- | --- |
| CC(C)c1cc2c(c(O)c1O)[C@@]1(C(=O)O)CCCC(C)(C)[C@@H]1CC2 [Carnosic acid, carnosic acid] | significantly reduced IL-1β release; also recorded: reduction in IL-1β | significantly reduced TNF release; also recorded: significantly reduced the type of inflammation | activates the Nrf2/ARE pathway | affording protection against neural damage | activates both the HSF-1 and Nrf2 transcription pathways |
| C=C1CC[C@@H]2C(C)(C)CCCC2(C)C1Cc1cc(O)ccc1O (stereo partly shown) [Zonarol, zonarol] | – | – | activate the Nrf2/ARE pathway | exert neuroprotective effects against oxidative stress | – |
